According to patent publication US9738660B2, “Selective inhibitors for protein kinases and pharmaceutical composition and use thereof” (National Chiao Tung University, priority 2014, dated 2017):
Read-outs that look alike come from different tables or passages of the source.

Assays:
Assay in all cases: Kinase Profiler, residual kinase activity
Assay type in all cases: biochemical
AKT1 = AKT1 (Homo sapiens, UniProt P31749); settings: read-out: percentage of the remaining kinase activity
Excerpt: (§1) Kinase Profiler services provided by […]. (http://www.reactionbiology.com) were used to analyze the data of the 9 type-S protein kinase inhibitors against the 40 types of protein kinases.

ALK = ALK (Homo sapiens, UniProt Q9UM73); settings: read-out: percentage of the remaining kinase activity
Excerpt: as §1

AURKA = target: T1, AURKA (Homo sapiens, UniProt O14965); settings: read-out: percentage of the remaining kinase activity
T1 sequence (O14965 1-403): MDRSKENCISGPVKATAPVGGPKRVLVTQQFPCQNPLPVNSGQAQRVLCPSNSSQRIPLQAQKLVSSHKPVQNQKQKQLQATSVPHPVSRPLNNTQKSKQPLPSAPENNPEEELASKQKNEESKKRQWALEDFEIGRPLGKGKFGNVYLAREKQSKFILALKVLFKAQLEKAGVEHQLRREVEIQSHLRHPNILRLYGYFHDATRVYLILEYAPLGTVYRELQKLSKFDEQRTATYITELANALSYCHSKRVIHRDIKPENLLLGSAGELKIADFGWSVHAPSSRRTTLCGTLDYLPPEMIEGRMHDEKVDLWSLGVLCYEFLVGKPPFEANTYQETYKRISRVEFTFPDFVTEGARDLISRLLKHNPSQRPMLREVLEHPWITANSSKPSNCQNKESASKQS
Excerpt: as §1

AXL = target: T2, AXL (Homo sapiens, UniProt P30530); settings: read-out: percentage of the remaining kinase activity
T2 construct: purchased Research Biology Corp. (http://www.reactionbiology.com)
T2 sequence (P30530 26-894): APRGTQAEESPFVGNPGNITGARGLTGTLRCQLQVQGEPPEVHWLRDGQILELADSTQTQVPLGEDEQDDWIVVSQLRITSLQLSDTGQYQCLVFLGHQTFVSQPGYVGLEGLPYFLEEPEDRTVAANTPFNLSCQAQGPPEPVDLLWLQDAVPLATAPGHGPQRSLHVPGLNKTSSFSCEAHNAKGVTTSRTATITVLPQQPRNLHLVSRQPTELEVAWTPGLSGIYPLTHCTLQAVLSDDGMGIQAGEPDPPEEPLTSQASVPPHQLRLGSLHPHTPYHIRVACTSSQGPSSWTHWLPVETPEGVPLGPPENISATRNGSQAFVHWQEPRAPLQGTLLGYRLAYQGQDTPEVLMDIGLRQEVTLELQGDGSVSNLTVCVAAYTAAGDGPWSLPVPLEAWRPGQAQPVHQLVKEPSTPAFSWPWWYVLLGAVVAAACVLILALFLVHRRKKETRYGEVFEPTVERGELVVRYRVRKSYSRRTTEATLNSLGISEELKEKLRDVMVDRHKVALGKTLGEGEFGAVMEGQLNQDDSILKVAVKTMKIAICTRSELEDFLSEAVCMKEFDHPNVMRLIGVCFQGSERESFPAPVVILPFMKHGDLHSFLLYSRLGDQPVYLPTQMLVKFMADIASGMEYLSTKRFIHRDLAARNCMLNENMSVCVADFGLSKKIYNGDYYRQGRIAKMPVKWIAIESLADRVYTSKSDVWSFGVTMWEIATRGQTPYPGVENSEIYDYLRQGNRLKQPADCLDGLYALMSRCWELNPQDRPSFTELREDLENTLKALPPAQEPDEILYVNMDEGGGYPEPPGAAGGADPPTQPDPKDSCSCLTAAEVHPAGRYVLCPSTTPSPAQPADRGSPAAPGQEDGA
Excerpt: as §1

CAMK2D = CAMK2D (Homo sapiens, UniProt Q13557); settings: for remaining activity at 0.5 µM: read-out: percentage of the remaining kinase activity
Excerpt: as §1

DYRK1A = DYRK1A (Homo sapiens, UniProt Q13627); settings: read-out: percentage of the remaining kinase activity
Excerpt: as §1

FGFR2 = target: T3, FGFR2 (Homo sapiens, UniProt P21802); settings: for remaining activity at 0.5 µM: read-out: percentage of the remaining kinase activity
T3 construct: purchased Research Biology Corp. (http://www.reactionbiology.com)
Excerpt: as §1

OXSR1 = target: T4, OXSR1 (Homo sapiens, UniProt O95747); settings: read-out: percentage of the remaining kinase activity
T4 construct: purchased Research Biology Corp. (http://www.reactionbiology.com)
Excerpt: as §1

PDPK1 = target: T5, PDPK1 (Homo sapiens, UniProt O15530); settings: read-out: percentage of the remaining kinase activity
T5 sequence (O15530 1-556): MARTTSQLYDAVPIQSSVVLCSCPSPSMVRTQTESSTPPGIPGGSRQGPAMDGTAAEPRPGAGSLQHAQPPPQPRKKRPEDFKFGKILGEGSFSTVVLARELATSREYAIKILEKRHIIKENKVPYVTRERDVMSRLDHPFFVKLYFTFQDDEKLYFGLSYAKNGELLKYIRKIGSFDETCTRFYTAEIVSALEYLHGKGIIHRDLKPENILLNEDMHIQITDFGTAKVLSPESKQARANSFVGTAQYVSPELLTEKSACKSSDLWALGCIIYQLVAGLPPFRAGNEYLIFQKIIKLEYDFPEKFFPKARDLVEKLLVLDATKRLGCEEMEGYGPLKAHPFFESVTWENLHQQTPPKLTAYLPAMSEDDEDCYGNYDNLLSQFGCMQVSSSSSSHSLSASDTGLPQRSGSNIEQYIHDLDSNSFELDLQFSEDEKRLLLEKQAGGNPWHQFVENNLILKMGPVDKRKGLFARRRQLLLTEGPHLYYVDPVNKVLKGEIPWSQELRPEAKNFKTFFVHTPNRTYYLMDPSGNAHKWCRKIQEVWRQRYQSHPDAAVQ
Excerpt: as §1

PRKACA = target: T6, PRKACA (Homo sapiens, UniProt P17612); settings: read-out: percentage of the remaining kinase activity
T6 construct: purchased Research Biology Corp. (http://www.reactionbiology.com)
Excerpt: as §1

RET = RET (Homo sapiens, UniProt P07949); settings: read-out: percentage of the remaining kinase activity
Excerpt: as §1

Chain of AKT1 (P31749 whole entry): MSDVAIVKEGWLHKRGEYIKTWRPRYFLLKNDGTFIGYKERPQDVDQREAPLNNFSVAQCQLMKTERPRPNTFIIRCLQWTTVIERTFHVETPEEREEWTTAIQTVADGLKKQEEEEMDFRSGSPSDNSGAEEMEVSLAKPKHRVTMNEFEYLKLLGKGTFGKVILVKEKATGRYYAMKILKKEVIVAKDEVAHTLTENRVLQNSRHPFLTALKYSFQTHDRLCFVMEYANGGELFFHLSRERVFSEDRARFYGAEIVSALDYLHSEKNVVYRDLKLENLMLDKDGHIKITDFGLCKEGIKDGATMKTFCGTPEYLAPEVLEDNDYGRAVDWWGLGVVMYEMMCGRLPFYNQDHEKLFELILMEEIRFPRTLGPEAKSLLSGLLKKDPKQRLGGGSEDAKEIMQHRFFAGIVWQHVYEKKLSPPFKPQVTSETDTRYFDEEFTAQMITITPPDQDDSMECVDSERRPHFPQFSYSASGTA
Chain of CAMK2D (Q13557 whole entry): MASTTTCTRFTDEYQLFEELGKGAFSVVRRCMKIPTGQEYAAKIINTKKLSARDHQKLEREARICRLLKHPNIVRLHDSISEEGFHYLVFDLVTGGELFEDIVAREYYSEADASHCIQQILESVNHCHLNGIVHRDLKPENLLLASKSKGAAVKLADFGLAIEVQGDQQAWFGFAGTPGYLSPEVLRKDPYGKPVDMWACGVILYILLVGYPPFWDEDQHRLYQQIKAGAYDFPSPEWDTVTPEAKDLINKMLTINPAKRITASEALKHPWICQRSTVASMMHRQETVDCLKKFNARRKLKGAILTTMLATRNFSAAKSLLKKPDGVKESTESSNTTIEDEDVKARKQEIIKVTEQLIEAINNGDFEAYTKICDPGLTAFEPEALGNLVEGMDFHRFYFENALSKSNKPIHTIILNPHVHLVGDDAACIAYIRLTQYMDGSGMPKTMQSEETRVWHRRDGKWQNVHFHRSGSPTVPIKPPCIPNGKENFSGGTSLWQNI
T4 sequence (O95747 whole entry): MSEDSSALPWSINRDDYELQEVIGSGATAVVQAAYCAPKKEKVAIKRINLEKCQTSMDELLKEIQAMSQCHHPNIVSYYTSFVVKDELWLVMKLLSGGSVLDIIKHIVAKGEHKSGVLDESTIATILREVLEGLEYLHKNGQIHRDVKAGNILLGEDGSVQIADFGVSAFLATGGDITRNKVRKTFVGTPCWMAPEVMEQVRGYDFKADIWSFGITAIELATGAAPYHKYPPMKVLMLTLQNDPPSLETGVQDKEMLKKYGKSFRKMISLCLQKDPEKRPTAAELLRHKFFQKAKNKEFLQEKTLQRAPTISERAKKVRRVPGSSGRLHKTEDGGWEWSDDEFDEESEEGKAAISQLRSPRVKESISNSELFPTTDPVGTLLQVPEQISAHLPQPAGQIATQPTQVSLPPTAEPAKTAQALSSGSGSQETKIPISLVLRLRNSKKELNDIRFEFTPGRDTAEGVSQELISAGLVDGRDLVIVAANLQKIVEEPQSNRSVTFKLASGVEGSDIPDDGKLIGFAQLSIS
Chain of ALK (Q9UM73 19-1620): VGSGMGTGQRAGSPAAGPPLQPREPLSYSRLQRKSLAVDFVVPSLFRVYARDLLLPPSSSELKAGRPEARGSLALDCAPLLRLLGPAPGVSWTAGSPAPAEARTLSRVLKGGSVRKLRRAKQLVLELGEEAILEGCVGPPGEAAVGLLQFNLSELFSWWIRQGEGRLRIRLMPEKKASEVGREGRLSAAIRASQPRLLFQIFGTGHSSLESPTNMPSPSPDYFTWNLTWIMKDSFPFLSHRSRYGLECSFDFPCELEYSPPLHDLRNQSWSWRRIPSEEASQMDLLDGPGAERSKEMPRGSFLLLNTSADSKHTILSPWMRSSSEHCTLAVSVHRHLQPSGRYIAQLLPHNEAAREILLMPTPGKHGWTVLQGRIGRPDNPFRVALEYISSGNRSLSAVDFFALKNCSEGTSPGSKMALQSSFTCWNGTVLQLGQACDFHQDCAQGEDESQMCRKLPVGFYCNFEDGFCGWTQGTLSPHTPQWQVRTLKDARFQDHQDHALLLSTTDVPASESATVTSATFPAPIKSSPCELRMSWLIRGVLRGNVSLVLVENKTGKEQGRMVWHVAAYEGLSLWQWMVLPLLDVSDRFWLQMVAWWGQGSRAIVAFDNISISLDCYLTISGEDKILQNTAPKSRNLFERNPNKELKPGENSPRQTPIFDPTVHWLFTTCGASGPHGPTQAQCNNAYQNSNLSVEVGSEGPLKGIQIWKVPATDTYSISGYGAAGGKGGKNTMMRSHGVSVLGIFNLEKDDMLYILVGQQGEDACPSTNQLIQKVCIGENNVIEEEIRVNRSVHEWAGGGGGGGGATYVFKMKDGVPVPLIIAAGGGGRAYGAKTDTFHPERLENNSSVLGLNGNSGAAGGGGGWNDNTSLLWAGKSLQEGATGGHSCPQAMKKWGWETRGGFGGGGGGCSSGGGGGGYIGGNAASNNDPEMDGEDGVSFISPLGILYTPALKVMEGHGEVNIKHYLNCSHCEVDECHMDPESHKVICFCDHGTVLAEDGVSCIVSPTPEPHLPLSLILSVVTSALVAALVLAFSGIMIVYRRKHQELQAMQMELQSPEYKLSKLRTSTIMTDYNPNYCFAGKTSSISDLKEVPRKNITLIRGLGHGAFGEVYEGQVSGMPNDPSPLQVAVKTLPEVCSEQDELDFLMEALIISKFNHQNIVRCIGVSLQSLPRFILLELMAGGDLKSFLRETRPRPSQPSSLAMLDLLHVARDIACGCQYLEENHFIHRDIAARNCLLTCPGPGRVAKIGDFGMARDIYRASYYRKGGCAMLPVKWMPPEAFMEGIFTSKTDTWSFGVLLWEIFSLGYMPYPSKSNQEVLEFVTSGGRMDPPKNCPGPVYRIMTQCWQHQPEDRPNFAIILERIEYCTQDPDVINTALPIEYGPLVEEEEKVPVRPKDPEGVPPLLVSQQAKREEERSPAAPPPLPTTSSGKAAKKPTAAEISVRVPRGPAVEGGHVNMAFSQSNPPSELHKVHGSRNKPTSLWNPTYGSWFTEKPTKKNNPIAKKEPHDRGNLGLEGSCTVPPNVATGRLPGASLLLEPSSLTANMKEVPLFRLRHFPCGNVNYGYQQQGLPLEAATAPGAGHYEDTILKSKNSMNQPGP
Chain of RET (P07949 29-1114): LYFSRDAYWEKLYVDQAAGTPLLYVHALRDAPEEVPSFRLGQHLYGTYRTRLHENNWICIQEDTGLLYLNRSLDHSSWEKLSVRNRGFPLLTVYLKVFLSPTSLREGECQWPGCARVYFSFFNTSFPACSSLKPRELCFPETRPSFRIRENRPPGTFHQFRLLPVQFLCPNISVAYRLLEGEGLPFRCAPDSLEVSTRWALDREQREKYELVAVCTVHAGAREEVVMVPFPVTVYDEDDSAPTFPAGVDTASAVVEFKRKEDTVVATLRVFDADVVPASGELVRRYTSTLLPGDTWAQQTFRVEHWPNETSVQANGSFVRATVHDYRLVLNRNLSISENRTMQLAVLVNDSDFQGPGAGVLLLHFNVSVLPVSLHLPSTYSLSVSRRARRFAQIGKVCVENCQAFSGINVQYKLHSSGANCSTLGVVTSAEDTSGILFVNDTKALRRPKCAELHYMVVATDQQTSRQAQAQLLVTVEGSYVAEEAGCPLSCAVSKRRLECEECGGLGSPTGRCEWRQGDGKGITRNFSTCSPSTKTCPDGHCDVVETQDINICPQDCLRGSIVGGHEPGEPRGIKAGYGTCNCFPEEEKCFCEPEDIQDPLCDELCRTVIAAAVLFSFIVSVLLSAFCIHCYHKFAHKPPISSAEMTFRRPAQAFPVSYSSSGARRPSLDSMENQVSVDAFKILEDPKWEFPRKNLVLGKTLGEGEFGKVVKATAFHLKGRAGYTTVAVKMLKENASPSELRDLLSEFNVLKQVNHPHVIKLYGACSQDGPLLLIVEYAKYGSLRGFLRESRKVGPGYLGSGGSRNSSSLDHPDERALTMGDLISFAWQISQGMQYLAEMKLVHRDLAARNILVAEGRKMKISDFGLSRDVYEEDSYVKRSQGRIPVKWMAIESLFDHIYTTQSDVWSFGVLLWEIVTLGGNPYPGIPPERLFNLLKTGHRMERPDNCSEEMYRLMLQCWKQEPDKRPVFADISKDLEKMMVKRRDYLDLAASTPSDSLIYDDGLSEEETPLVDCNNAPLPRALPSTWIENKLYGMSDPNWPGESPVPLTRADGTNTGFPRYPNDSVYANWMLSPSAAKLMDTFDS
T3 sequence (P21802 22-821): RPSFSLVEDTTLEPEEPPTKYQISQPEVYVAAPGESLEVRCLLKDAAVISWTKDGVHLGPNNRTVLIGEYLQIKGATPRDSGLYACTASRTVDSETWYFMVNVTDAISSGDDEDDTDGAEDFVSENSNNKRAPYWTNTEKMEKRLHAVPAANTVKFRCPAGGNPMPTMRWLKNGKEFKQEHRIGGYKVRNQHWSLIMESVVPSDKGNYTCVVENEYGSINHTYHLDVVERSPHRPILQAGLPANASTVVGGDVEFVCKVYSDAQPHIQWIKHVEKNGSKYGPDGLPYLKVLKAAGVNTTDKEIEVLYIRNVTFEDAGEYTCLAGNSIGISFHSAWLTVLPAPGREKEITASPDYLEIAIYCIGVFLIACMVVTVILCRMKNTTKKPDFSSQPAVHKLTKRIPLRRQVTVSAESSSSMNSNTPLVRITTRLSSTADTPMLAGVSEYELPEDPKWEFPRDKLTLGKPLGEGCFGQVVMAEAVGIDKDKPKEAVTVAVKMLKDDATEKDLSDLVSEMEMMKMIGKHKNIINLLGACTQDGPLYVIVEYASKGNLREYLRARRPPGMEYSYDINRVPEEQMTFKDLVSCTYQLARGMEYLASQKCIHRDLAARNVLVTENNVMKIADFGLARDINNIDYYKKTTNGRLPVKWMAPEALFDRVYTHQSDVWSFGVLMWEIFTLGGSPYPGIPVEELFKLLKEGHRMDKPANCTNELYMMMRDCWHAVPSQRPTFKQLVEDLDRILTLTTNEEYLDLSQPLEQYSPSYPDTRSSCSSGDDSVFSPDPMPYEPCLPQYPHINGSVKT

Row | SMILES | remaining activity at 0.5 µM (AKT1; AKT1, inhibitor at 500 nM) [%] | remaining activity at 0.5 µM (ALK; ALK, inhibitor at 500 nM) [%] | remaining activity at 0.5 µM (AURKA; AURKA, inhibitor at 500 nM) [%] | remaining activity at 0.5 µM (AXL; AXL, inhibitor at 500 nM) [%] | remaining activity at 0.5 µM (CAMK2D; CAMK2D, inhibitor at 500 nM) [%] | remaining activity at 0.5 µM (DYRK1A; DYRK1A, inhibitor at 500 nM) [%] | remaining activity at 0.5 µM (FGFR2; FGFR2, inhibitor at 500 nM) [%] | remaining activity at 0.5 µM (OXSR1; OXSR1, inhibitor at 500 nM) [%] | remaining activity at 0.5 µM (PDPK1; PDPK1, inhibitor at 500 nM) [%] | remaining activity at 0.5 µM (PRKACA; PRKACA, inhibitor at 500 nM) [%] | remaining activity at 0.5 µM (RET; RET, inhibitor at 500 nM) [%] | further results
1 | COC1C(N(C)C(=O)C(N)Cc2cn(C(=O)OC(C)(C)C)c3ccccc23)CC2OC1(C)n1c3ccccc3c3c4c(c5c6ccccc6n2c5c31)C(=O)NC4 (stereo not shown) [Compound 2] | 97.6 | 85.4 | 86.2 | 100 | 16.1 | 88.6 | 88.4 | 116 | 81 | 81.1 | 101 | IC50 (CAMK2D; CAMK2D, inferred from test at 500 nM (FIG. 1)): < 500 nM
2 | CN[C@@H]1C[C@H]2O[C@@](C)([C@@H]1OC)n1c3ccccc3c3c4c(c5c6ccccc6n2c5c31)C(=O)NC4 [STU, staurosporine, reference compound] | – | – | – | – | – | – | – | – | -1.8 | – | – | remaining activity at 0.5 µM (AKT1): 3.8%; remaining activity at 0.5 µM (ALK): -0.3%; remaining activity at 0.5 µM (AURKA): 0.2%; remaining activity at 0.5 µM (AXL): 8.8%; remaining activity at 0.5 µM (CAMK2D): 0.4%; remaining activity at 0.5 µM (OXSR1): 15.8%
3 | COC1C(N(C)C(=O)C(N)Cc2ccc(OC(C)(C)C)cc2)CC2OC1(C)n1c3ccccc3c3c4c(c5c6ccccc6n2c5c31)C(=O)NC4 (stereo not shown) [Compound 4] | 79.6 | 56.7 | 19.7 | 77.2 | 6.7 | 17.8 | 43.2 | 110 | 13.3 | 38.3 | 63 | inhibitory effect on FGFR2 (FGFR2; in words): had an inhibitory effect on FGFR2
4 | COC1C(N(C)C(=O)C(N)CCC(=O)OC(C)(C)C)CC2OC1(C)n1c3ccccc3c3c4c(c5c6ccccc6n2c5c31)C(=O)NC4 (stereo not shown) [Compound 6] | 67.5 | 44.7 | 5.3 | 60.9 | 12.7 | 13.8 | 26.5 | 111 | 3.4 | 40.8 | 34.2 | –
5 | COC1C(N(C)CCOc2cccc([N+](=O)[O-])c2)CC2OC1(C)n1c3ccccc3c3c4c(c5c6ccccc6n2c5c31)C(=O)NC4 (stereo not shown) [Compound 8] | – | – | – | – | – | – | – | – | – | – | – | remaining activity at 0.5 µM (AKT1): 52.3%; remaining activity at 0.5 µM (ALK): 19.5%; remaining activity at 0.5 µM (AURKA): 12.1%; remaining activity at 0.5 µM (AXL): 46.3%; remaining activity at 0.5 µM (CAMK2D): 0.3%; remaining activity at 0.5 µM (DYRK1A): 25.3%; remaining activity at 0.5 µM (FGFR2): 31.4%; remaining activity at 0.5 µM (OXSR1): 102%; remaining activity at 0.5 µM (PDPK1): 4.7%; remaining activity at 0.5 µM (PRKACA): 26.4%; remaining activity at 0.5 µM (RET): 16.2%
6 | COC1C(N(C)C(=O)C(N)Cc2ccc(O)cc2)CC2OC1(C)n1c3ccccc3c3c4c(c5c6ccccc6n2c5c31)C(=O)NC4 (stereo not shown) [Compound 5] | 66.8 | 29.1 | 4.9 | 60.3 | 10.1 | 0.6 | 21.7 | 109 | 2 | 32.6 | 21.3 | –
7 | COC1C(N(C)C(=O)C(N)CCC(=O)O)CC2OC1(C)n1c3ccccc3c3c4c(c5c6ccccc6n2c5c31)C(=O)NC4 (stereo not shown) [Compound 7] | 31.5 | 4.7 | 0.9 | 26.8 | 2.3 | 0.6 | 9.2 | 100 | 0.5 | 18.6 | 1.6 | –
8 | COC1C(N(C)Cc2ccc(-c3ccccc3)cc2)CC2OC1(C)n1c3ccccc3c3c4c(c5c6ccccc6n2c5c31)C(=O)NC4 (stereo not shown) [Compound 9] | 46.9 | 17.6 | 11.2 | 37.6 | 1.1 | 18.5 | 26.5 | 94.7 | 2.7 | 24.6 | 14.8 | –
9 | COC1C(N(C)C(=O)C(N)Cc2c[nH]cn2)CC2OC1(C)n1c3ccccc3c3c4c(c5c6ccccc6n2c5c31)C(=O)NC4 (stereo not shown) [Compound 1] | 19.6 | 3.3 | 2.1 | 35.4 | 2 | 0.4 | 9.8 | 106 | 0.5 | 13.9 | 6 | –
